According to US20170071879A1, “PROTOTYPICAL ANALGESIC PROFILE OF 3,3-DIPHENYL-N-(1-PHENYLETHYL)PROPAN-1-AMINE (FENDILINE)” (priority 2015, published 2017):
Like-named read-outs stand apart in the source and are kept apart here.

Tests used:
[1] = test system: Paclitaxel induced neuropathic sensitization (PINS); test: Paclitaxel induced neuropathic sensitization (PINS) in the formalin test of pain; assay type: in vivo; settings: mice; for suppression of PINS: 35-40 mn central sensitization phase, formalin induced pain
Procedure: Fendiline at 1 or 5 mg/kg, per os (po) suppressed the PINS by 75% or 63%, respectively, in the 35-40 mn central sensitization phase, in the formalin induced pain, in mice (Compound A1).
When fendiline was administered at 25 or 75 mg/kg (po) per os (po), PINS diminished by 181% or 275%, respectively in mice (Compound A2), i.e., less pain reaction than the control which hadn't receive Paclitaxel.

[2] = target: sigma-1 (Homo sapiens, UniProt Q99720); test: sigma-1 affinity; assay type: binding
[3] = target: sigma-2 receptors (Homo sapiens, UniProt Q5BJF2); test: sigma-2 receptor affinity; assay type: binding
[4] = test system: Maximal Electrochoc Seizures (MES); test: Maximal Electrochoc Seizures (MES); assay type: in vivo; settings: mice
[5] = test system: Pentylenetetrazole (PTZ) convulsions; test: Pentylenetetrazole (PTZ) convulsions; assay type: in vivo; settings: mice
[6] = test system: brain dopamine turnover; test: brain dopamine turnover, mice; assay type: in vivo; settings: 5-50 mg/kg ip
Text: (§1) It could be co-administered with the μ-ORAs amplifying their analgesic activity and, more importantly, protecting against the opioid dependence of the μ-ORAs.

[7] = test system: brain dopamine turnover; test: brain dopamine turnover, rats; assay type: in vivo; settings: 5-50 mg/kg ip
Text: as §1

[8] = test system: brain dopamine turnover; settings: mice; cited from earlier work
[9] = test system: brain dopamine turnover; settings: rats; cited from earlier work

Chain of sigma-1 (Q99720 whole entry): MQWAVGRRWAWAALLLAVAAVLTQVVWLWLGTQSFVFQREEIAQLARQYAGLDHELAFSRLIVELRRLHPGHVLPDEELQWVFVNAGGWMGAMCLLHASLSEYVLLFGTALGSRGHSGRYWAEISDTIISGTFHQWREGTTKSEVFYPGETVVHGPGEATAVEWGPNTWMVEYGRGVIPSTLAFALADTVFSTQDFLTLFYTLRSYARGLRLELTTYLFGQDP
Chain of sigma-2 receptors (Q5BJF2 whole entry): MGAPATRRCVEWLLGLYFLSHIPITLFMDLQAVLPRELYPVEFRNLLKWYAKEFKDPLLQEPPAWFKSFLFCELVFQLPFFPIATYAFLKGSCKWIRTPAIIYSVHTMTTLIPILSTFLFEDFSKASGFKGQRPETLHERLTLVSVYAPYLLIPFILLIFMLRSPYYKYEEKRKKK

Ki [2]: 14 to 18 nM | Ki [3]: 730 to 850 nM
Structure (SMILES): CC(NCCC(c1ccccc1)c1ccccc1)c1ccccc1 (stereo not drawn) [Fendiline, 3,3-diphenyl-N-(1-phenylethyl) propan-1-amine]
suppression of PINS ([1]; 1 mg/kg po): 75% | suppression of PINS ([1]; 5 mg/kg po): 63% | PINS diminished ([1]; 25 mg/kg po): 181% | PINS diminished ([1]; 75 mg/kg po): 275% | anticonvulsive activity in MES [4]: absence of anticonvulsive activities | anticonvulsive activity in PTZ convulsions [5]: absence of anticonvulsive activities | brain DA turnover [6]: decrease of the DA turnover | brain DA turnover [7]: decrease of the DA turnover | brain dopamine turnover [8]: decrease of the brain dopamine turnover | brain dopamine turnover [9]: decrease of the brain dopamine turnover
